The first test addresses T1, 5-hydroxytryptamine receptor 1A (Rattus norvegicus, UniProt P19327).
T1 sequence (P19327 whole entry): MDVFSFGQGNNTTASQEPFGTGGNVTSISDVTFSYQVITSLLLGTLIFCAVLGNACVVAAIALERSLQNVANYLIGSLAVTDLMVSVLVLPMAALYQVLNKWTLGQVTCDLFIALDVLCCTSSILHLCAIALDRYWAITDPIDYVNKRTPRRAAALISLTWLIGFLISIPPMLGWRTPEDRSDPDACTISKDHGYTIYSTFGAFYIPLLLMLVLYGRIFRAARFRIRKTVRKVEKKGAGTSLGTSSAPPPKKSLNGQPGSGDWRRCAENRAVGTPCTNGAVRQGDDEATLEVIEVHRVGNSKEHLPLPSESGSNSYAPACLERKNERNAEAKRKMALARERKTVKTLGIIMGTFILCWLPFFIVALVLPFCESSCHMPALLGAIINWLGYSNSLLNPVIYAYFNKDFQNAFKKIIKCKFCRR
Experiment: not given
The format is cell membranes, Membrane.
Regarding `COc1ccccc1CCCN(C)C`, the affinity corresponds to a Ki of 3.2 µM. Turning to `COc1cccc2c1CC(NCCN1C(=O)c3ccccc3C1=O)CC2` (stereo not given), the Ki (usually the dissociation constant of the complex between target and ligand, obtained from inhibition or displacement) stood at 0.25 µM.

Regarding `COc1ccc2ccccc2c1N1CCNCC1`, the affinity corresponds to a Ki of 0.034 µM. Same read-out and setting: the figure for `COc1cccc2c1CC(NCCCN1C(=O)c3ccccc3C1=O)CC2` (stereo not given) is 0.048 µM; for `COc1ccc2cccc(N3CCNCC3)c2c1` it is 0.0033 µM; for `O=C1c2ccccc2C(=O)N1CCCCNCCCOc1cccc2ccccc12` it is 0.025 µM.

Compound `COc1ccccc1CCCNCCCCN1C(=O)c2ccccc2C1=O` had a Ki of 0.11 µM.

`COc1ccc2[nH]cc(CCNCCCCN3C(=O)c4ccccc4C3=O)c2c1` had a Ki of 0.02 µM. Consider `COc1ccccc1CCCN(C)CCCCN1C(=O)c2ccccc2C1=O`, for which the Ki stood at 0.17 µM. With `CN(CCCCN1C(=O)c2ccccc2C1=O)CCc1ccccc1`, the affinity corresponds to a Ki of 0.3 µM. `COc1ccc2[nH]cc(CCN(C)C)c2c1` [MEBUFOTENIN] yielded a Ki of 0.01 µM.

The target of the next test is T1, 5-hydroxytryptamine receptor 1A. The test is described as follows: Binding affinity of compound towards 5-HT 1A receptor by measuring ability to displace [3H]OH-DPAT from 5-hydroxytryptamine 1A receptor in rat hippocampal membranes.
Regarding `COc1ccccc1N1CCN(CCCCCN2C(=O)c3ccccc3C2=O)CC1`, the affinity corresponds to a Ki of 0.005 µM. Compound `CN(C)CCc1ccccc1` displayed a Ki of 0.85 µM. `O=C1c2ccccc2C(=O)N1CCCNCCCOc1cccc2ccccc12` came in with a Ki of 0.045 µM.

A further test shares this target. Described as above. This is another data set of the same source.
Take `O=C1c2ccccc2C(=O)N1CCNCCCOc1cccc2ccccc12`: affinity was put at a Ki of 1.33 µM.

The values above are taken from ChEMBL document CHEMBL1124566, “N-(phthalimidoalkyl) derivatives of serotonergic agents: a common interaction at 5-HT1A serotonin binding sites?” (J Med Chem, 1989).
